This is an account of results in US20260041669A1, “SOLID FORMS OF A CDK INHIBITOR” (Relay Therapeutics, Inc., priority 2022, published 2026).

Broadly, the Solubility is the concentration that dissolves in the medium under given conditions. Read a high Solubility as much dissolved substance. The term solubility denotes the dissolved amount per volume that the medium holds.

This series is described as follows: Thermodynamic solubility of cocrystals (HPLC quantitation). The class given is physicochemical. To be noted: for solubility at 24 h: thermodynamic from solid. As for the experimental part:
Base Buffer (FaSSGF), pH 1.6—Sodium chloride (2.03 g) was dissolved in Ca. 800 ml of deionised water in a 1 L volumetric flask. This solution was mixed thoroughly and then the pH adjusted to 1.6±0.05 with concentrated hydrochloric acid. The solution was then made to volume with deionised water and the pH recorded (pH 1.6).
FaSSGF Media—Phares SIF (simulated intestinal fluid) powder (0.06 g) was dissolved in Ca. 800 ml of base buffer (2.1.1) in a 1 L volumetric flask. This solution was mixed thoroughly and then made to volume with the same base buffer. The final pH was recorded (pH 1.7)
Acetate Base Buffer (FeSSIF), pH 5.0—Sodium hydroxide (11.90 g), acetic acid (8.25 ml) and sodium chloride (3.96 g) were dissolved in Ca. 800 ml of deionised water in a 1 L volumetric flask. This solution was mixed thoroughly and then the pH adjusted to 5.0±0.05 with 0.5M hydrochloric acid. The solution was then made to volume with deionised water and the pH recorded (pH 5.0)
FeSSIF Media—Phares SIF (simulated intestinal fluid) powder (1.12 g) was dissolved in Ca. 80 ml of base buffer (2.2.1) in a 100 ml volumetric flask. This solution was mixed thoroughly and then made to volume with the same base buffer. The final pH was recorded (pH 4.8)
Phosphate Base Buffer (FeSSIF), pH 6.5—Sodium hydroxide (0.41 g), sodium phosphate monobasic (3.95 g) and sodium chloride (6.49 g) were dissolved in Ca. 800 ml of deionised water in a 1 L volumetric flask. This solution was mixed thoroughly and then the pH adjusted to 6.5 f 0.05 with 0.5M hydrochloric acid. The solution was then made to volume with deionised water and the pH recorded (pH 6.5)
FaSSIF Media—Phares SIF (simulated intestinal fluid) powder (0.23 g) was dissolved in Ca. 80 ml of base buffer ([00300]) in a 100 ml volumetric flask. This solution was mixed thoroughly and then made to volume with the same base buffer. The final pH was recorded (pH 6.3)
DI Water (deionized water)—The pH was recorded (pH 6.1)
Thermodynamic Solubility—Sufficient sample was suspended in 0.5 ml media for a maximum anticipated concentration of Ca. 10 mg/ml of the free form of the compound. The resulting suspensions were then shaken at 25° C./750 rpm for 24 hours in DI H2O and at 37° C./750 rpm for 24 hours in simulated fluids. After equilibration, the appearance was noted, and the pH of the saturated solution was measured. Samples were then filtered through a glass ‘C’ fibre filter (Particle retention 1.2 μm), before dilution with buffer as appropriate.
Quantitation was by HPLC with reference to a standard solution of approximately 0.15 mg/ml. Different volumes of the standards and diluted sample solutions were injected. The solubility was calculated using the peak areas determined by integration of the peak found at the same retention time as the principal peak in the standard injection.
The results from the solubility measurements in deionized water (DI water), stimulated fasting state conditions in the gastric fluid (FaSGF), simulated fed state conditions in the small intestines (FeSSIF), and simulated fasting state conditions in the small intestines fluid (FaSSIF) are summarized in Table 16.

Where [1] appears, read: DI Water, shaken at 25° C./750 rpm for 24 hours, average.
[2] abbreviates: DI Water, shaken at 25° C./750 rpm for 24 hours, single replicate.
Setting [3] is: FaSSGF, shaken at 37° C./750 rpm for 24 hours, average.
Setting [4] is: FaSSGF, shaken at 37° C./750 rpm for 24 hours, single replicate.
[5] abbreviates: FaSSIF, shaken at 37° C./750 rpm for 24 hours, average.
Where [6] appears, read: FaSSIF, shaken at 37° C./750 rpm for 24 hours, single replicate.
Setting [7] is: FeSSIF, shaken at 37° C./750 rpm for 24 hours, average.
Setting [8] is: FeSSIF, shaken at 37° C./750 rpm for 24 hours, single replicate.

Values after ≈ are worked out from the molar mass of the structure shown. Values joined by “and” are separate entries in the source; they are usually repeats but may differ in a detail not shown here. Identical values can stand only once. Like-named read-outs stand apart in the source and are kept apart here.

`Cn1nc(OCC(F)F)cc1C(=O)Nc1cc([C@H]2C[C@@H](OC(=O)NC34CC(C3)C4)CO2)n[nH]1` [Compound 1-5 Form A]: the “Average Solubility” value is, setting by setting: under setting [1], 280 µg/mL; under setting [3], 310 µg/mL; under setting [5], 250 µg/mL; under setting [7], 820 µg/mL. Also, the “Solubility” value is 280 µg/mL (≈ 600 µM) under setting [2]; 310 µg/mL (≈ 665 µM) under setting [4]; 240 µg/mL (≈ 515 µM) under setting [6]; 840 µg/mL and 800 µg/mL under setting [8].

Turning to `Cn1nc(OCC(F)F)cc1C(=O)Nc1cc([C@H]2C[C@@H](OC(=O)NC34CC(C3)C4)CO2)n[nH]1` [Componud I-3 Form A], the “Solubility” value runs as follows: under setting [2], 300 µg/mL (≈ 643 µM); under setting [4], 380 µg/mL and 390 µg/mL; under setting [8], 620 µg/mL and 360 µg/mL. For the same compound, the “Average Solubility” value runs as follows: under setting [3], 390 µg/mL; under setting [7], 490 µg/mL. Besides, the solubility at 24 h runs as follows: (deionized water, 25 °C, pH 6.1, water, DI Water, shaken at 25° C./750 rpm for 24 hours, average, read-out: Average Solubility) 300 µg/mL (≈ 643 µM); (deionized water, 25 °C, pH 6.1, water, DI Water, shaken at 25° C./750 rpm for 24 hours, single replicate, read-out: Solubility) 290 µg/mL (≈ 622 µM).

Regarding `Cn1nc(OCC(F)F)cc1C(=O)Nc1cc([C@H]2C[C@@H](OC(=O)NC34CC(C3)C4)CO2)n[nH]1` [Compound 1-6 Form A], the “Average Solubility” value under setting [1] worked out at 330 µg/mL, the “Average Solubility” value under setting [3] was 320 µg/mL, the “Average Solubility” value under setting [5] was determined as 310 µg/mL and the “Average Solubility” value under setting [7] was determined as 700 µg/mL. Besides, the “Solubility” value is 330 µg/mL (≈ 707 µM) under setting [2]; 320 µg/mL (≈ 686 µM) under setting [4]; 310 µg/mL (≈ 665 µM) under setting [6]; 660 µg/mL and 730 µg/mL under setting [8].

For the compound `Cn1nc(OCC(F)F)cc1C(=O)Nc1cc([C@H]2C[C@@H](OC(=O)NC34CC(C3)C4)CO2)n[nH]1` [Compound I-4 Form A], the “Average Solubility” value came to 290 µg/mL under setting [1], 370 µg/mL under setting [3], 290 µg/mL under setting [5] and 880 µg/mL under setting [7]. Also, the “Solubility” value was 290 µg/mL (≈ 622 µM) under setting [2]; 370 µg/mL and 360 µg/mL under setting [4]; 280 µg/mL (≈ 600 µM) under setting [6]; 940 µg/mL and 820 µg/mL under setting [8].

Turning to `Cn1nc(OCC(F)F)cc1C(=O)Nc1cc([C@H]2C[C@@H](OC(=O)NC34CC(C3)C4)CO2)n[nH]1` [Compound I-2 Form A], the “Average Solubility” value under setting [1] was 210 µg/mL. The “Solubility” value runs as follows: under setting [2], 210 µg/mL (≈ 450 µM); under setting [4], 350 µg/mL (≈ 750 µM); under setting [8], 920 µg/mL and 850 µg/mL. Also, the solubility at 24 h reads like this: (FaSSGF (simulated gastric fluid, fasted state), 37 °C, pH 1.7, fassgf or other biorelevant, FaSSGF, shaken at 37° C./750 rpm for 24 hours, average, read-out: Average Solubility) 350 µg/mL (≈ 750 µM); (FaSSGF (simulated gastric fluid, fasted state), 37 °C, pH 1.7, fassgf or other biorelevant, FaSSGF, shaken at 37° C./750 rpm for 24 hours, single replicate, read-out: Solubility) 340 µg/mL (≈ 729 µM); (FaSSIF (simulated intestinal fluid, fasted state), 37 °C, pH 6.3, fassif, FaSSIF, shaken at 37° C./750 rpm for 24 hours, average, read-out: Average Solubility) 290 µg/mL (≈ 622 µM); (FaSSIF (simulated intestinal fluid, fasted state), 37 °C, pH 6.3, fassif, FaSSIF, shaken at 37° C./750 rpm for 24 hours, single replicate, read-out: Solubility) 290 µg/mL (≈ 622 µM); (FeSSIF (simulated intestinal fluid, fed state), 37 °C, pH 4.8, fessif, FeSSIF, shaken at 37° C./750 rpm for 24 hours, average, read-out: Average Solubility) 890 µg/mL (≈ 1910 µM).
